In patent publication US20250074901A1, “NOVEL HETEROARYL COMPOUNDS” (ICAGEN, LLC, priority 2021, published 2025):

Target: T1, Kv7.2 (Homo sapiens, UniProt O43526)
T1 construct: expressed in transfected cells
Assay: Activation of Kv7.2 (in vitro assay, concentration response curve)
Format: cell-based
Details: for Emax: Kv7.2 activation max %; for EC50: activation of Kv7.2
Protocol: The term “EC50” in this application is defined as: the agonistic effect of a compound can be determined by testing the compound in an in vitro assay as described herein, whereby the effect of the compound is measured across a range of compound concentrations. The resulting data is plotted as a concentration response curve, which typically follows a sigmoidal function, whereby the concentration of the compound is plotted on the x axis and the response (agonistic effect) is plotted on the y axis. The term “EC50” is the “half maximal effective concentration” and denotes the concentration of a particular compound required to obtain 50% of the maximum response (Emax) which is observed for that compound in the given in vitro assay.

Emax | EC50 | Compound
40% | 1140 nM | O=C(NCc1ccnc(OC(F)F)c1)N[C@H]1CC[C@](O)(C(F)(F)F)C1 (racemic) [Example 187, 1-[[2-(difluoromethoxy)pyridin-4-yl]methyl]-3-[rac-(1R,3S)-3-hydroxy-3-(trifluoromethyl)cyclopentyl]urea]
48% | 220 nM | O=C(NCc1ccnc(OC(F)F)c1)N[C@@H]1CC[C@H](C(F)F)C1 (racemic) [Example 193, 1-[[2-(difluoromethoxy)pyridin-4-yl]methyl]-3-[rac-(1R,3S)-3-(difluoromethyl)cyclopentyl]urea]
75% | 70 nM | O=C(NCc1ccnc(OC(F)F)c1)NC1CC[C@@H]2CC[C@H]12 (mixture of isomers) [Example 196, 1-[[2-(difluoromethoxy)pyridin-4-yl]methyl]-3-[rac-(1R,5R)-2-bicyclo[3.2.0]heptanyl]urea]
54% | 500 nM | O=C(NCc1ccnc(OC(F)F)c1)NC1C2CCC1CC(F)(F)C2 (racemic) [Example 197, 1-[[2-(difluoromethoxy)pyridin-4-yl]methyl]-3-[rac-(1R,5S)-3,3-difluoro-8-bicyclo[3.2.1]octanyl]urea]
52% | 310 nM | O=C(NCc1ccnc(OCC(F)CF)c1)N[C@H]1CC[C@@H](C(F)(F)F)C1 (mixture of isomers) [Example 225, 1-[[2-(2,3-difluoropropoxy)pyridin-4-yl]methyl]-3-[rac-(1R,3S)-3-(trifluoromethyl)cyclopentyl]urea]
56% | 4270 nM | O=C(NCc1ccnc(OC(F)F)c1)NC1C[C@@H](F)[C@@H](F)C1 (mixture of isomers) [Example 234, 1-[[2-(difluoromethoxy)pyridin-4-yl]methyl]-3-[rac-(3R,4S)-3,4-difluorocyclopentyl]urea]
87% | 460 nM | O=C(NCc1ccnc(OC(F)F)c1)N[C@@H]1C[C@H]2C[C@@H]1C(F)(F)C2 (racemic) [Example 236, 1-[[2-(difluoromethoxy)pyridin-4-yl]methyl]-3-[rac-(1R,2S,4S)-6,6-difluoro-2-bicyclo[2.2.1]heptanyl]urea]
78% | 2570 nM | O=C(NCc1ccnc(OC(F)F)c1)N[C@@H]1CC[C@@H]1C(F)(F)F (racemic) [Example 255, 1-[[2-(difluoromethoxy)pyridin-4-yl]methyl]-3-[rac-(1R,2S)-2-(trifluoromethyl)cyclobutyl]urea]
62% | 540 nM | O=C(NCc1ccnc(CC(F)(F)F)c1)N[C@H]1CCC[C@@H](C(F)(F)F)C1 (racemic) [Example 276, 1-[rac-(1R,3S)-3-(trifluoromethyl)cyclohexyl]-3-[[2-(2,2,2-trifluoroethyl)pyridin-4-yl]methyl]urea]
75% | 490 nM | O=C(NCc1ccnc(OC(F)F)c1)N[C@@H]1CC[C@@H](C(F)(F)F)C1 (single isomer, unassigned) [Example 206]
58% | 230 nM | O=C(NCc1ccnc(OC(F)F)c1)N[C@H]1CC[C@H](C(F)(F)F)C1 (single isomer, unassigned) [Example 207]
73% | 310 nM | O=C(Nc1cccc(Cl)c1)NC(CO)c1ccnc(OC(F)F)c1 (single isomer, unassigned) [Example 263]
52% | 430 nM | O=C(NC(CO)c1ccnc(OC(F)F)c1)N[C@@H]1COc2ccccc2C1 (stereo in doubt) [Example 278, rel-1-[1-[2-(difluoromethoxy)pyridin-4-yl]-2-hydroxyethyl]-3-[(3S)-3,4-dihydro-2H-chromen-3-yl]urea]
54% | 2420 nM | O=C(NCc1ccnc(-n2cccn2)c1)N[C@@H]1CCOc2ccccc21 [Example 1, 1-[(4R)-3,4-dihydro-2H-chromen-4-yl]-3-[(2-pyrazol-1-ylpyridin-4-yl)methyl]urea]
74% | 4400 nM | O=C(NCc1ccnc(-n2cccn2)c1)NC1CCCC1 [Example 2, 1-cyclopentyl-3-[(2-pyrazol-1-ylpyridin-4-yl)methyl]urea]
60% | 430 nM | O=C(NCc1ccnc(-n2cccn2)c1)Nc1cccc(Cl)c1 [Example 4, 1-(3-chlorophenyl)-3-[(2-pyrazol-1-ylpyridin-4-yl)methyl]urea]
60% | 3690 nM | CC1CC(C)(C)CCC1NC(=O)NCc1ccnc(C#N)c1 (stereo not shown) [Example 5, 1-[(2-cyanopyridin-4-yl)methyl]-3-(2,4,4-trimethylcyclohexyl)urea]
58% | 1140 nM | O=C(NCc1ccnc(-n2cccn2)c1)NC12CC(C(F)(F)F)(C1)C2 [Example 6, 1-[(2-pyrazol-1-ylpyridin-4-yl)methyl]-3-[3-(trifluoromethyl)-1-bicyclo[1.1.1]pentanyl]urea]
52% | 1520 nM | O=C(NCc1ccnc(-n2ccnc2)c1)NC1CCCC(C2CC2)C1 (stereo not shown) [Example 8, 1-(3-cyclopropylcyclohexyl)-3-[(2-imidazol-1-ylpyridin-4-yl)methyl]urea]
53% | 700 nM | CC1CC(C)(C)CCC1NC(=O)NCc1ccnc(-n2ccnc2)c1 (stereo not shown) [Example 9, 1-[(2-imidazol-1-ylpyridin-4-yl)methyl]-3-(2,4,4-trimethylcyclohexyl)urea]
54% | 1390 nM | O=C(NCCC1=CCCCC1)NCc1ccnc(-n2cccn2)c1 [Example 10, 1-[2-(cyclohexen-1-yl)ethyl]-3-[(2-pyrazol-1-ylpyridin-4-yl)methyl]urea]
56% | 330 nM | O=C(NCc1ccnc(OC(F)F)c1)NCC1CCC1 [Example 13, 1-(cyclobutylmethyl)-3-[[2-(difluoromethoxy)pyridin-4-yl]methyl]urea]
78% | 380 nM | O=C(NCc1ccnc(-n2cccn2)c1)N[C@H]1C[C@@H]2CC[C@H]1C2 [Example 15, 1-[(1S,2S,4R)-2-bicyclo[2.2.1]heptanyl]-3-[(2-pyrazol-1-ylpyridin-4-yl)methyl]urea]
73% | 390 nM | O=C(NCc1ccnc(-n2cccn2)c1)N[C@@H]1C[C@H]2CC[C@@H]1C2 [Example 16, 1-[(1R,2R,4S)-2-bicyclo[2.2.1]heptanyl]-3-[(2-pyrazol-1-ylpyridin-4-yl)methyl]urea]
51% | 510 nM | CC(NC(=O)NCc1ccnc(OC(F)F)c1)C1CCC1 (stereo not shown) [Example 17, 1-(1-cyclobutylethyl)-3-[[2-(difluoromethoxy)pyridin-4-yl]methyl]urea]
71% | 270 nM | CC1(C)CCC(NC(=O)NCc2ccnc(OC3COC3)c2)CC1 [Example 18, 1-(4,4-dimethylcyclohexyl)-3-[[2-(oxetan-3-yloxy)pyridin-4-yl]methyl]urea]
57% | 390 nM | O=C(NCc1ccnc(OC(F)F)c1)NC1CCCC1 [Example 20, 1-cyclopentyl-3-[[2-(difluoromethoxy)pyridin-4-yl]methyl]urea]
52% | 190 nM | O=C(NCc1ccnc(OCC(F)(F)F)c1)NCC1CCC1 [Example 21, 1-(cyclobutylmethyl)-3-[[2-(2,2,2-trifluoroethoxy)pyridin-4-yl]methyl]urea]
41% | 30 nM | O=C(NCc1ccnc(OC(F)F)c1)Nc1cccc(Cl)c1 [Example 22, 1-(3-chlorophenyl)-3-[[2-(difluoromethoxy)pyridin-4-yl]methyl]urea]
